# Biological target: T1, hTRPV3 (Homo sapiens, UniProt Q8NET8)
# T1 construct: expressed in transfected cells; host or cells: HEK-293
# T1 sequence (Q8NET8 1-790): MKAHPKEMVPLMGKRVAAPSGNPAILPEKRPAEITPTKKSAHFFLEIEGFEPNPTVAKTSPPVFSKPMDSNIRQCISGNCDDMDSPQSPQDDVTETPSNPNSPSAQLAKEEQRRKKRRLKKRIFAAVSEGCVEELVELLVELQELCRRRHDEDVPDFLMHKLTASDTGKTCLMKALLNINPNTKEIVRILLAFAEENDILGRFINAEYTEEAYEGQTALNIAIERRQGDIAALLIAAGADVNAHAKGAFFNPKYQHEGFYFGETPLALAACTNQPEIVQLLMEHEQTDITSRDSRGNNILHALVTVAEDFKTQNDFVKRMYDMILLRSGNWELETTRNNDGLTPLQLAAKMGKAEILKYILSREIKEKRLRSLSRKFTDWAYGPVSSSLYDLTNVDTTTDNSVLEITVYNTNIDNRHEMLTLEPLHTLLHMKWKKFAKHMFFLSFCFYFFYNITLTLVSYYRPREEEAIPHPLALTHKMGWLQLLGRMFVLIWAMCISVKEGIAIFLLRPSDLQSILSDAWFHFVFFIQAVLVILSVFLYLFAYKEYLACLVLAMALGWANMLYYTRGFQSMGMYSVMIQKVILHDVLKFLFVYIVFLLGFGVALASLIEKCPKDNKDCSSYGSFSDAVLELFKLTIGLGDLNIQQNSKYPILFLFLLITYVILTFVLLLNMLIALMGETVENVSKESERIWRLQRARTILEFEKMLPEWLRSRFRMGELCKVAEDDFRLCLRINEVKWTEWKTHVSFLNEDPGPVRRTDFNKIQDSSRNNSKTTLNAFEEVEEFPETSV
# Assay: Whole cell patch clamp inhibition rate test on HEK-293 cells instantaneously expressing TRPV3
# Format: cell-based
# Details: HEK293; hTRPV3, single concentration 0.3 μM
# Method: In this study, HEK-293 cells instantaneously expressing TRPV3 were used for experimental detection.
# The operation steps are as follows:
# The cells were cultured in DMEM medium containing 10% fetal bovine serum at a temperature of 37° C. and a carbon dioxide concentration of 5%.
# Day 1: Cells were inoculated into a 6-well plate with 5×10^5 cells per well.
# Day 2: Transfection was performed using Lipofectamine 3000 transfection reagent, with a plasmid to transfection reagent ratio of 1 μg: 2 μL. The total amount of plasmid used per well was 3 μg. Specifically, two sterile centrifuge tubes were taken and 100 μL Opti-MEM was added to each tube. 6 μL Lipofectamine 3000 was added to one tube and mixed well; and 3 μg plasmid was added to another tube and mixed well, and then 6 μL P3000 was added and mixed well; Subsequently, the diluted plasmid DNA was added to diluted Lipofectamine 3000 and incubated at room temperature for 10-15 min. DNA liposome complex was dropped into the cells, shaked gently and mixed well, and then cultured in an incubator. The liquid was changed after 4 to 6 h.
# Day 3: The cells were digested and seeded into 24 well plates with pre-placed cover slides, with 8×10^3 cells per well.
# Day 4: Patch clamp testing was performed.
# The voltage stimulation protocol for recording TRPV3 current using whole cell patch clamp is as follows: after forming a whole cell seal, a cell membrane voltage clamp was set at −80 mV. Firstly, a membrane potential was recorded at 0 mV, and then a voltage was command to start from −100 mV, to depolarize in the form of Ramp to 100 mV within 100 ms, and finally restore to 0 mV. Data collection was repeated every 5 seconds to observe the inhibitory effect of pharmaceutical on peak current. Experimental data was collected by EPC 10 amplifier (HEKA) and stored in PatchMaster (HEKA) software.
# A microelectrode puller was used to pull the capillary glass tube into a recording electrode. The electrode filled with intracellular fluid was inserted into a microelectrode holder, and a microelectrode manipulator was operated under an inverted microscope to immerse the electrode in extracellular fluid and an electrode resistance (Rpip) was recorded. The electrode was brought into contact with the cell surface and a negative pressure suction was applied to form a high resistance seal (GΩ). At this point, a fast capacitance compensation was performed, and negative pressure was continued to apply in order to break the cell membrane, so that a whole cell recording mode was formed. Then, a slow capacitance compensation was performed and experimental parameters such as film capacitance (Cm) and series resistance (Rs) were recorded. No leakage compensation was provided.
# When the TRPV3 current recorded by the whole cell had stabilized, administration was started. Each pharmaceutical concentration acted for 5 minutes (or until the current stabilized) before detecting the next concentration. A plurality of concentrations was tested for each test compound. A cover glass covered with cells was placed in a recording bath under an inverted microscope. A blank control extracellular solution and a working fluid for the compound to be tested sequentially flowed through the recording bath from low concentration to high concentration using gravity perfusion to act on the cells. Liquid exchange was performed using a peristaltic pump during recording. The current detected by each cell in the extracellular fluid without the compound served as its own control group. Each concentration was independently tested twice using at least two cells. All electrophysiological tests were conducted at room temperature.
row,SMILES,inhibition at 0.3 µM
1,CC(C)c1ccccc1-c1ccc2c(c1)[C@H](O)C[C@]21CCN(C(=O)c2ccc(F)cn2)C1 [Example 26],< 25%
2,"CC(C)c1ccccc1-c1ccc2c(c1)C(O)CC21CCN(C(=O)c2csc(Cl)n2)C1 (centres unmarked) [Example 18, (2-chlorothiazol-4-yl)(3-hydroxy-5-(2-isopropylphenyl)-2,3-dihydrospiro[indene-1,3′-pyrrolidine]-1′-yl) ketone]",70 to 100%
3,"COCc1cnc(C(=O)N2CCC3(CC(O)c4cc(-c5ccccc5C(C)C)ccc43)C2)cn1 (centres unmarked) [Example 69, (3-hydroxy-5-(2-isopropylphenyl)-2,3-dihydrospiro[indene-1,3′-pyrrolidine]-1′-yl)(5-(methoxymethyl)pyrazin-2-yl)ketone]",< 25%
4,"O=C(c1ccc(F)cn1)N1CC[C@]2(C[C@H](O)c3cc(-c4ccccc4C4CC4)ccc32)C1 [Example 23, ((1R,3S)-5-(2-cyclopropylphenyl)-3-hydroxy-2,3-dihydrospiro[indene-1,3′-pyrrolidine]-1′-yl)(5-fluoropyridin-2-yl)ketone]",< 25%
5,"O=C(c1csc(Cl)n1)N1CC[C@]2(C[C@H](O)c3cc(-c4ccccc4C4CC4)ccc32)C1 [Example 32, (2-chlorothiazol-4-yl)((1R,3S)-5-(2-cyclopropylphenyl)-3-hydroxy-2,3-dihydrospiro[indene-1,3′-pyrrolidine]-1′-yl)ketone]",< 25%
6,CC(C)c1ccccc1-c1ccc2c(c1)[C@@H](O)C[C@]21CCN(C(=O)c2ccc(F)cn2)C1 [Example 27],< 25%
7,"CC(C)c1ccccc1[S+]([O-])c1ccc2c(c1)C(O)CC21CCN(C(=O)c2ccc(F)cn2)C1 (centres unmarked) [Example 107, (5-fluoropyridin-2-yl)(3-hydroxy-5-((2-isopropylphenyl)sulfoxide)-2,3-dihydrospiro[indene-1,3′-pyrrolidine]-1′-yl) ketone]",< 25%
8,"O=C(c1ccc(F)cn1)N1CCC2(C1)OB(O)c1ccccc12 (centres unmarked) [Example 8, (5-fluoropyridin-2-yl) (1-hydroxy-1H-spiro[benzo[c][1,2]oxaborolane-3,3′-pyrrolidine]-1′-yl) ketone]",< 25%
9,"CC(C)c1ccccc1-c1ccc2c(c1)C(O)CC21CC(=O)N(Cc2ccc(F)cn2)C1 (centres unmarked) [Example 137, 1′-((5-fluoropyridin-2-yl)methyl)-3-hydroxy-5-(2-isopropylphenyl)-2,3-dihydrospiro[indene-1,3′-pyrrolidine]-5′-one]",< 25%
10,"CC(C)c1ccccc1-c1ccc2c(c1)C(O)CC21CCN(C(=O)c2cccc(C3CC3)n2)C1 (centres unmarked) [Example 20, (6-cyclopropylpyridin-2-yl)(3-hydroxy-5-(2-isopropylphenyl)-2,3-dihydrospiro[indene-1,3′-pyrrolidine]-1′-yl) ketone]",70 to 100%
11,"O=C1C[C@@]2(CCN(C(=O)c3ccc(F)cn3)C2)c2ccc(-c3ccccc3C3CC3)cc21 [Example 162, (S)-5-(2-cyclopropylphenyl)-1′-(5-fluoropyridoyl)spiro[indene-1,3′-pyrrolidine]-3(2H)-one]",< 25%
12,"CC(C)c1ccccc1-c1ccc2c(c1)C(O)CC21CCN(C(=O)c2cc[nH]n2)C1 (centres unmarked) [Example 71, (3-hydroxy-5-(2-isopropylphenyl)-2,3-dihydrospiro[indene-1,3′-pyrrolidine]-1′-yl)(1H-pyrazol-3-yl)ketone]",50 to 70%
13,"O=C(c1csc(Cl)n1)N1CC[C@]2(C[C@@H](O)c3cc(-c4ccccc4C4CC4)ccc32)C1 [Example 30, (2-chlorothiazol-4-yl)((1R,3R)-5-(2-cyclopropylphenyl)-3-hydroxy-2,3-dihydrospiro[indene-1,3′-pyrrolidine]-1′-yl)ketone]",< 25%
14,"CC(C)c1ccccc1-c1ccc2c(c1)C1(CCN(C(=O)c3ccc(F)cn3)C1)CC2O (centres unmarked) [Example 103, (5-fluoropyridin-2-yl)(3-hydroxy-6-(2-isopropylphenyl)-2,3-dihydrospiro[indene-1,3′-pyrrolidine]-1′-yl) ketone]",< 25%
15,"CC(C)c1ccccc1-c1ccc2c(c1)[C@@H](O)C[C@]21CCN(C(=O)c2cccc(C3CC3)n2)C1 [Example 44, (6-cyclopropylpyridin-2-yl)((1R,3S)-3-hydroxy-5-(2-isopropylphenyl)-2,3-dihydrospiro[indene-1,3′-pyrrolidine]-1′-yl)ketone]",< 25%
16,"O=C(c1cccc(Cl)n1)N1CCC2(CC(O)c3cc(-c4ccccc4C4CC4)ccc32)C1 (centres unmarked) [Example 51, (6-chloropyridin-2-yl)(5-(2-cyclopropylphenyl)-3-hydroxy-2,3-dihydrospiro[indene-1,3′-pyrrolidine]-1′-yl)ketone]",70 to 100%
17,"O=C(c1csc(Cl)n1)N1CC[C@@]2(C[C@@H](O)c3cc(-c4ccccc4C4CC4)ccc32)C1 [Example 29, (2-chlorothiazol-4-yl)((1S,3R)-5-(2-cyclopropylphenyl)-3-hydroxy-2,3-dihydrospiro[indene-1,3′-pyrrolidine]-1′-yl)ketone]",70 to 100%
18,"O=C(c1ccc(C(F)(F)F)cn1)N1CCC2(CC(O)c3cc(-c4ccccc4C4CC4)ccc32)C1 (centres unmarked) [Example 50, (5-(2-cyclopropylphenyl)-3-hydroxy-2,3-dihydrospiro[indene-1,3′-pyrrolidine]-1′-yl)(5-(trifluoromethyl)pyridin-2-yl) ketone]",70 to 100%
19,"O=C(c1ccc(Cl)cn1)N1CCC2(C1)OB(O)c1cc(-c3ccccc3C3CC3)ccc12 (centres unmarked) [Example 10, (5-chloropyridin-2-yl)(6-(2-cyclopropylphenyl)-1-hydroxy-1H-spiro[benzo[c][1,2]oxaborolane-3,3′-pyrrolidine]-1′-yl) ketone]",25 to 50%
20,"CC(C)c1ccccc1-c1ccc2c(c1)C(O)CC21CCN(C(=O)c2ccc3cn[nH]c3n2)C1 (centres unmarked) [Example 75, (3-hydroxy-5-(2-isopropylphenyl)-2,3-dihydrospiro[indene-1,3′-pyrrolidine]-1′-yl)(1Hpyrazolo[3,4-b]pyridin-6-yl) ketone]",25 to 50%
21,"O=C(c1ccc(F)cn1)N1CCC2(CC(O)c3cc(-c4ccc(F)cc4C4CC4)ccc32)C1 (centres unmarked) [Example 163, (5-(2-cyclopropyl-4-fluorophenyl)-3-hydroxy-2,3-dihydrospiro[indene-1,3′-pyrrolidine]-1′-yl)(5-fluoropyridin-2-yl) ketone]",70 to 100%
22,"CC(C)c1ccccc1-c1ccc2c(c1)C(O)CC21CCN(C(F)(F)c2ccc(F)cn2)C1 (centres unmarked) [Example 146, 1′-(difluoro(5-fluoropyridin-2-yl)methyl)-5-(2-isopropylphenyl)-2,3-dihydrospiro[indene-1,3′-pyrrolidine]-3-ol]",< 25%
23,"OC1CC2(CCN(c3cnc4cc(Cl)ccn34)C2)c2ccc(-c3ccccc3C3CC3)cc21 (centres unmarked) [Example 152, 5-(2-cyclopropylphenyl)-1′-(7-chloroimidazo[1,2-a]pyridin-3-yl)-2,3-dihydrospiro[indene-1,3′-pyrrolidine]-3-ol]",70 to 100%

# Reference: patent US20260174786A1, “A NITROGEN-CONTAINING SPIROCYCLIC COMPOUND, PHARMACEUTICAL COMPOSITION AND USE THEREOF” (Prime Gene Therapeutics Co., Ltd., priority 2022, published 2026)
